# Measured values from US8399696B2, “Functionalized biodegradable triclosan monomers and oligomers for controlled release” (Bezwada Biomedical, LLC, priority 2007, dated 2013).
# Experiment: Hydrolysis of 500 mg (0.5 grams) of compound in 50 mL buffer (pH 9 or pH 7) at 50 or 100° C.
# Type: physicochemical
# Experimental: Into a clean and dry 1 liter, 3 necked round bottom flask equipped with a nitrogen inlet was added 15 grams of triclosan in 150 ml of ethyl acetate. 15 ml of pyridine was added to the reaction mixture and the reaction mixture was left for stifling at room temperature for 10 minutes. To this stirring solution was added dropwise 24 grams of stearic acid glycolic acid chloride 27 dissolved in 30 ml of ethyl acetate and the reaction was left for stirring at room temperature for twenty four hours following which the […] salt was filtered off and the ethyl acetate layer was washed with 5% solution of sodium bicarbonate followed by drying using sodium sulphate. Ethyl acetate was distilled off using high vacuum distillation to yield 22 grams of crude 28. […]
# [1] = 500 mg in 50 mL pH 9 buffer, 100° C.
# [2] = 0.5 grams in 50 mL pH 9 buffer, 50° C.
time to hydrolysis (Hydrolyzed in) [2],"extent of hydrolysis in 53 hours (0.5 grams in 50 mL pH 7 buffer, 100° C., 53 hours)",SMILES,time to hydrolysis (Hydrolyzed in) [1],"extent of hydrolysis by TLC in 48 hours (0.5 grams in 50 mL pH 7 buffer, 50° C.)","extent of hydrolysis by TLC in 48 hours (0.5 grams in 50 mL pH 7 buffer, 100° C.)"
–,–,"CCCCCCCCCCCCCCCCCC(=O)OCC(=O)Oc1cc(Cl)ccc1Oc1ccc(Cl)cc1Cl [Example 28, Triclosan Glycolic Acid Stearate]",27 h,–,–
Hydrolyzed in 150 hours,–,"O=C(COCCOc1ccc(OCCOCC(=O)Oc2cc(Cl)ccc2Oc2ccc(Cl)cc2Cl)cc1)Oc1cc(Cl)ccc1Oc1ccc(Cl)cc1Cl [Example 15, [2-(4-{2-[5-Chloro-2-(2,4-dichloro-phenoxy)-phenoxycarbonylmethoxy]-ethoxy}phenoxy)-ethoxy]-acetic acid 5-chloro-2-(2,4-dichloro-phenoxy)-phenyl ester]",–,–,–
Hydrolyzed in 150 hours,–,"O=C(COc1ccc(OCC(=O)Oc2cc(Cl)ccc2Oc2ccc(Cl)cc2Cl)cc1)Oc1cc(Cl)ccc1Oc1ccc(Cl)cc1Cl [Compound 19, {4-[5-Chloro-2-(2,4-dichloro-phenoxy)-phenoxycarbonylmethoxy]-phenoxy}-acetic acid 5-chloro-2-(2,4-dichloro-phenoxy)-phenyl ester]",–,By TLC it hydrolyzed around 5% in 48 hours,By TLC it hydrolyzed around 15% in 48 hours
Hydrolyzed in 102 hours,Hydrolyzed 50% only in 53 hours,O=C(COCC(=O)Oc1cc(Cl)ccc1Oc1ccc(Cl)cc1Cl)Oc1cc(Cl)ccc1Oc1ccc(Cl)cc1Cl [Example 20],Hydrolyzed in 25 hours,–,–
